According to US12390435B2, “Electrophiles and electrophile pro-drugs as RAD51 inhibitors” (University of Pittsburgh—Of the Commonwealth System of …, priority 2018, dated 2025):
Like-named read-outs stand apart in the source and are kept apart here.

How the values were obtained:
[1] = tested on: MCF-10A cells; experiment: Cell growth assay (FluoReporter dsDNA); type: cell-based; conditions: for IC50: Homo sapiens, MCF-10A
Protocol: (§1) Cells were plated at a cell density of 5000 cells per well in 96-well plates. […] Cells were counted using the FluoReporter dsDNA quantitation kit (Molecular Probes) according to the manufacturer's instructions. Fluorescence was measured using a SpectraMax M2 plate reader (Molecular Devices). […] Three individual experiments were done (n=5/each), and statistical comparison between two cell lines across doses was determined by two-way analysis of variance followed by Tukey post-test.

[2] = tested on: MCF7 cells; experiment: Cell growth assay (FluoReporter dsDNA); type: cell-based; conditions: Homo sapiens, 48 hr, 0-15 μM
Protocol: as §1

[3] = tested on: MDA-MB-468 cells; experiment: Cell growth assay (FluoReporter dsDNA); type: cell-based; conditions: Homo sapiens, 48 hr, 0-15 μM
Protocol: as §1

[4] = tested on: homologous recombination (DR-GFP, U2OS cells); experiment: DR-GFP HR reporter assay in U2OS cells; type: cell-based
Protocol: Measurements of NHEJ, HR, Alt-EJ and SSA assays were performed as previously described. HR activity was measured by counting GFP-positive cells by flow cytometry at the MWRI flow cytometry core using a BD LSRII (BD Biosciences). RAD51 overexpressing cells were generated by stable transfection of pLVX RAD51 IRES Neo and selection with geneticin (Invitrogen).
U2OS cells were prepared as above, but 5 h following compound treatment, cells were transferred into the Incucyte Zoom (Essen) live-cell imaging automated fluorescence microscope at 37° C. with 5% CO2. Cell confluence and green object count per mm2 were determined using Incucyte Zoom software. Green object count per field was normalized to cell confluency to correct for NO2—OA-induced effects on cell proliferation.
NO2-OA-dependent effects on HR DNA repair were further investigated by utilizing a DRGFP reporter assay. This analysis quantifies intracellular recombination of an integrated cDNA cassette of two tandem non-fluorescent GFP constructs following introduction of an I-SceI cleavage to the system by measuring the fluorescent GFP protein that is produced following successful recombination. […] A novel strategy was used to measure the kinetics of changes in HR in live cells by using automated fluorescence microscopy to track the emergence of GFP positive cells over time in monolayers, as opposed to making static measurements of detached cells using flow cytometry. […] This was indicated by an absence of changes in the number of GFP positive cells following I-SceI cleavage after 48 h by flow cytometric analysis or over 68 h by live-cell fluorescence microscopy (FIGS. 2C, 2D).

[5] = tested on: MCF-10A cells; experiment: RAD51 foci and γH2AX immunofluorescence after 5 Gy IR; type: cell-based
Protocol: FIGS. 1A-1K. […] FIG. 1A. […] FIG. 1C. […] EC50 values indicate average+SEM, n=3. FIGS. 1D-1F. […] FIG. 1G. […] FIGS. 1H-1I. […] Merged samples include DAPI stained nuclei (blue). […] The average percentages of cells with 5 or more foci from confocal z-stacked images are indicated from 0 or 5 Gy samples+SEM. FIG. 1J. […] Rad51 foci were counted and γH2AX intensities were assessed by ImageJ in 5Gy irradiated cells (histograms), that were analyzed by immunofluorescence (IF). FIG. 1K, upper part. […] FIG. 1K, lower part. Combination index (CI) was calculated by the Chou-Talalay method. CI<1 is synergistic. Data represent the mean from three independent experiments.
To analyze RAD51 foci formation, 10,000 cells were plated to CultureWell 16-well chambered cover glass (MIDSCI) coated with poly-L-lysine (Sigma) and incubated overnight in 5% FBS media. […] Cells were fixed with 10% formalin for 20 min at 4° C. and immunostained with RAD51 (Santa Cruz) or γH2AX (EMD Biosciences) antibodies. Z-stack images were acquired using a Nikon AIR confocal microscope with 60× oil objective and acquisition performed using NIS elements software. Quantification of z-stacks and foci were completed using ImageJ software.

[6] = tested on: breast cancer cell; experiment: Clonogenic assay after 2 Gy IR; type: cell-based; conditions: increasing concentrations
[7] = tested on: MCF-10A cells; experiment: FACS cell cycle analysis; type: cell-based; conditions: 5 μM, 24 hr
Protocol: (§2) Adherent and nonadherent cells were collected, centrifuged at 2000×rpm for 10 min, washed with ice-cold phosphate-buffered saline, fixed with cold 70% ethanol at 4° C. for 30 mins, and stained with 50 μg/mL propidium iodide (Sigma-Aldrich). FACS analysis was performed at the University of Pittsburgh Department of Immunology Unified Flow Core Facility. Three individual experiments were done, and statistical comparisons among phases (G0/G1, S, and G2/M) were determined by one-way analysis of variance followed by Tukey post-test.

[8] = tested on: MDA-MB-231 and MDA-MB-468 cells; experiment: FACS cell cycle analysis; type: cell-based; conditions: 5 μM, 24 hr
Protocol: as §2

[9] = tested on: TNBC cells; experiment: Cellular H2O2 production; type: cell-based; conditions: short term and extended (6 hr) treatment
[10] = tested on: MDA-MB-231 and MDA-MB-468 cells; experiment: Boyden chamber cell migration; type: cell-based; conditions: 5 μM
Protocol: MDA-MB-231 and MDA-MB-468 cells were subjected to cell migration analysis in Boyden chambers. The bottom of a 12-well membrane filter (BD Biosciences) was coated with 10 μg/mL fibronectin for 12 hr before each experiment. […] Cells were trypsinized and washed with migration media (DMEM containing 0.1% fatty acid-free BSA) to remove serum. Cells at a density of 10^5/well were then placed in the upper chamber with migration media containing the same pretreatment conditions. The cells were allowed to migrate towards the 5% FBS chemoattractant for 5 hr. Non-migrated cells from the top surface were removed with cotton swabs. Migrated cells were fixed with 4% paraformaldehyde (Electron Microscopy Sciences), then stained with 0.5% crystal violet (Sigma-Aldrich) for 15 min. Migrated cell density on the filters was observed by microscopy. The crystal violet on migrated cells was de-stained with 10% acetic acid, and the absorbance in individual filters was determined at […] nm. Images are representative of three individual experiments, and statistical comparison among treatments was determined by one-way analysis of variance followed by Tukey post-test.

[11] = tested on: MDA-MB-468 cells; experiment: Matrigel cell invasion assay; type: cell-based; conditions: NO2-OA/NO2-SA 5 μM, JSH-23 10 μM, TNFα 20 ng/mL, 24 hr
Protocol: Cells were then suspended in migration media and placed in the top well of invasion chambers (EMD Millipore). Chemoattractant (5% FBS) was placed in the lower chamber for 24 hr at 37° C. to attract invasive cells. Cells were then harvested and invasion rates were determined according to manufacturer's protocol. Three individual experiments were done, and statistical comparison among treatments was determined by one-way analysis of variance followed by Tukey post-test.

[12] = intravenous and oral formulations; cited from earlier work

CCCCCCCCC(=CCCCCCCCC(=O)O)[N+](=O)[O-] [NO2-OA, 10-nitro-octadec-9-enoic acid]
IC50 ([1]; read-out: IC50 cell growth, only NO2-OA treatment, probenecid study, no probenecid, 0-25 μM 48 hr): 14.2 ± 1.05 µM
IC50 ([1]; 48 hr, 0-15 μM, read-out: IC50 cell growth): 7.7 ± 1.93 µM
decrease of IC50 by probenecid ([1]; probenecid pretreated versus only NO2-OA): 2 fold
IC50 [2]: 11.6 ± 3.59 µM
IC50 [3]: 1.6 ± 0.11 µM
HR activity in RAD51 overexpressing versus control reporter cells ([4]; 5 μM NO2-OA): significantly increased
decrease in number of GFP-positive cells (HR) ([4]; daily 5 μM, over 68 h, live-cell microscopy): 2 fold
decrease in number of GFP positive cells (HR) ([4]; daily NO2-OA, 48 h, flow cytometry, versus OA or vehicle): 2 fold
RAD51 foci / γH2AX in irradiated benign cells [5]: no effect
cell death in clonogenic assay [6]: enhanced breast cancer cell death
cell cycle phase populations (G0/G1, S, G2/M) [7]: not affected
cell cycle phase distribution [8]: significantly increased the percentage of cells at G2/M phase
cellular rates of H2O2 production [9]: did not significantly impact cellular rates of H2O2 production
basal, non-stimulated migration [10]: modestly inhibited
TNFα-induced cell migration ([10]; TNFα 20 ng/mL): significantly inhibited
TNFα-induced invasion [11]: significantly inhibited
clinical safety [12]: safe
